Experimental data published in publication PMC7482066, “Unstable Mechanisms of Resistance to Inhibitors of Escherichia coli Lipoprotein Signal Peptidase” (mBio, 2020).
In brackets after ≈: the same amount, converted by molar mass.

Legend:
E. coli CFT073 Δlpp = assay: MIC; assay type: cell-based
Description: (§1) MICs of compounds in each strain were determined in cation-adjusted Mueller-Hinton II (MHII) broth or MHII agar according to the Clinical and Laboratory Standards Institute protocol (CLSI 2006). To measure the effect of protein binding on activity, MIC assays were performed in the presence of 50% heat-inactivated human serum. The serum killing assay was performed as described previously ([43]). FOR assays and growth on plates containing G0790 were always performed on MHII agarose plates.

A. baumannii 17978 = assay: MIC; assay type: cell-based; details: A. baumannii ATCC 17978; in words
Description: as §1

E. coli CFT073(pBADlspA) = assay: MIC; assay type: cell-based; details: in words
Description: as §1

S. aureus USA300 = assay: MIC; assay type: cell-based; details: in words
Description: as §1

E. coli MG1655 ΔtolC = assay: MIC; assay type: cell-based; details: E. coli MG1655 WT vs MG1655 ΔtolC
Description: as §1

E. coli CFT073 imp4213 = assay: MIC; assay type: cell-based; details: in words
Description: as §1

Lpp = Lpp localization in peptidoglycan-associated and membrane fractions, Western blot; assay type: cell-based, E. coli; details: CFT073, 2× MIC G0790
Description: Purification of peptidoglycan-associated proteins (PAPs) was performed according to published methods ([43], [67], [68]) with some modifications. Briefly, bacteria were harvested in mid-exponential phase for treatment and then subjected to PAP extraction by resuspending cell pellets from an optical density (OD; A600) of 10 in 6 ml of PAP extraction buffer containing 2% (wt/vol) SDS in 100 mM Tris-HCl (pH 8.0) with 100 mM NaCl, 10% glycerol, and cOmplete mini EDTA-free protease inhibitor cocktail (Sigma-Aldrich). After 60 min at room temperature (RT), the extraction was subjected to centrifugation at 100,000 × g for 60 min at 22°C, and the pellet, containing peptidoglycan-associated proteins, was washed once with the same PAP extraction buffer with centrifugation at 100,000 × g for 30 min and resuspended in 200 μl of PAP extraction buffer (referred to as the SDS-insoluble or PAP fraction). The supernatant containing the SDS-soluble fraction was aliquoted and frozen (referred to as the non-PAP fraction). Both fractions were treated with equal volumes of BugBuster buffer prior to the addition of sample buffer for Western immunoblotting as described above.
The inner and outer membrane fractionations of bacterial cells were performed according to published methods ([69]), with some modifications. […]

## CCCCCC[C@H]1OC(=O)CNC(=O)[C@H]([C@H](C)O)NC(=O)[C@H](CN)NC(=O)[C@H](C2CCCCC2)NC(=O)[C@H](CCC)N(C)C(=O)[C@@H]1C [G0790]
E. coli CFT073 Δlpp; CFT073 Δlpp parent, resistant-strain study
  MIC: 19.5 µg/mL (≈ 29.2 µM)
E. coli CFT073 Δlpp; in words
  Susceptibility of CFT073 Δlpp relative to parental WT: more resistant to G0790 than the parental WT strain
A. baumannii 17978
  MIC against A. baumannii compared to GBM: modestly decreased MIC
E. coli CFT073(pBADlspA)
  Effect of LspA overexpression or lpp deletion on inhibition of WT CFT073 and CFT073 imp4213: decreased upon LspA overexpression or lpp deletion
S. aureus USA300
  Activity against S. aureus USA300: no increased activity
E. coli MG1655 ΔtolC
  WT/tolC MIC shift: ~31 fold
E. coli CFT073 imp4213
  Activity against CFT073 imp4213 relative to GBM: more active than GBM
Lpp
  Lpp localization after treatment: loss of the peptidoglycan-associated form of Lpp in the outer membrane and its accumulation in the inner membrane
